Laboratory results: US20150141580A1, “OPTIMIZED DRUG CONJUGATES” (SynDevRx, Inc., priority 2010, published 2015)

Assay: Pharmacokinetics of polymer conjugate, plasma SDX-7539 by LC-MS/MS
Assay type: in vivo, Sprague-Dawley rats
Details: after SDX-7539 30 mg/kg or SDX-7320 200 mg/kg IV, rat
Experimental: FIG. 6 is a graph showing the plasma concentration of the active metabolite, SDX-7539, as a function of time in Sprague-Dawley rats, to which either the polymer conjugate SDX-7320 (single bolus, intravenous injection, 200 mg/kg) or the small molecule SDX-7539 (single bolus, intravenous injection, 30 mg/kg) has been administered.
The polymer conjugate, SDX-7320, or the in vivo release product, SDX-7539 were administered to Sprague-Dawley rats (N=3). Blood was collected over 48 hours after dosing to determine the plasma concentration of SDX-7539 by LC-MS/MS. The LLOQ for SDX-7539 was 2.5 nM. The terminal elimination half-life for SDX-7539 was estimated by fitting a linear regression to the In[SDX-7539] versus time data. […] Cmax for the polymer is about 2% of the value for the small molecule.

AUC for SDX-7539: comparable
SMILES: CO[C@@H]1[C@H](OC(=O)NC2CCC(N)CC2)CC[C@]2(CO2)[C@H]1[C@@]1(C)O[C@@H]1CC=C(C)C (stereo partly shown) [SDX-7539]
